Measurements published in patent publication US20210322450A1, “APPLICATION OF COMPOSITION CONTAINING NICOTINAMIDE MONONUCLEOTIDE IN ANTI-AGING DRUGS/HEALTHCARE PRODUCTS” (HOBOOMLIFE BIO-TECHNOLOGY (SHENZHEN) CO., LTD., priority 2019, published 2021).

Tested on: ex-vivo carotid artery segment of the mouse
Assay: Ex-vivo carotid artery segment incubated with TEMPOL in vitro (EDD)
Set-up: species or system C57BL/6 male mice
Experimental: After 8 weeks, the mice were anesthetized with isoflurane and euthanized by bloodletting through cardiac puncture. The carotid artery was excised, the […] was inserted into the tip of a glass micropipette, and fixed with a nylon suture in a myograph chamber (DMTInc., Ann Arbor, Mich., USA) containing a buffered saline solution.
The artery was pressurized to 50 mm Hg at 37° C. and equilibrated for 45 minutes before the experiment. After sub-polar contraction was performed using phenylephrine (2 μM), the diameter of the arterial lumen was increased to the degree of response of acetylcholine (Ach: 1×10^−91×10^−4 M), and the arterial tube treated with acetylcholine was used to determine […] dilation by vasodilation in response to NO donor sodium nitroprusside (SNP: 1×10^−101×10^−4 M). Calculated according to the following formula, the vasodilation response was recorded as the actual diameter due to the difference in the maximum carotid artery diameter of the young and old animals, expressed as a percentage of the maximum reaction. The formula is as follows:
Dilation (%)=(Ds−Db)/(Dm−Db)×100%;
wherein, Dm is the maximum diameter of the lumen under a pressure of 50 mm Hg pressure; Db is the steady-state lumen diameter after pre-contraction before the first addition of the drug; Ds is the steady-state lumen diameter recorded after the drug is added.

## CC1(C)CC(O)CC(C)(C)N1[O] [TEMPOL, 4-hydroxy-2,2,6,6-tetramethylpiperidin-1-yloxy]
Old control group
  EDD of the carotid artery after incubation in vitro: restored the EDD
Other groups (young control, young and old experimental groups)
  EDD of the carotid artery after incubation in vitro: no effect
